The target of the assay is T1, mTOR (Homo sapiens, UniProt P42345).
T1 construct: FLAG; made in house
Briefly: In Vitro mTOR Kinase Assay (Echo), Test (a)(ii). The format is biochemical. The note with it: table of enzyme assay Test (a)(ii); read-out: Test (a)(ii) IC50. In short, it runs like this: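 AlphaScreen read-out: biotinylated substrate phosphorylation was detected with anti-p70 S6K (T389) 1A5 antibody, Protein A acceptor and streptavidin donor beads after overnight dark incubation at room temperature. Enzyme was FLAG-mTOR 1362-2549 from stable HEK293 cells.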

Each structure is given as a SMILES string.

T1 sequence (P42345 1362-2549): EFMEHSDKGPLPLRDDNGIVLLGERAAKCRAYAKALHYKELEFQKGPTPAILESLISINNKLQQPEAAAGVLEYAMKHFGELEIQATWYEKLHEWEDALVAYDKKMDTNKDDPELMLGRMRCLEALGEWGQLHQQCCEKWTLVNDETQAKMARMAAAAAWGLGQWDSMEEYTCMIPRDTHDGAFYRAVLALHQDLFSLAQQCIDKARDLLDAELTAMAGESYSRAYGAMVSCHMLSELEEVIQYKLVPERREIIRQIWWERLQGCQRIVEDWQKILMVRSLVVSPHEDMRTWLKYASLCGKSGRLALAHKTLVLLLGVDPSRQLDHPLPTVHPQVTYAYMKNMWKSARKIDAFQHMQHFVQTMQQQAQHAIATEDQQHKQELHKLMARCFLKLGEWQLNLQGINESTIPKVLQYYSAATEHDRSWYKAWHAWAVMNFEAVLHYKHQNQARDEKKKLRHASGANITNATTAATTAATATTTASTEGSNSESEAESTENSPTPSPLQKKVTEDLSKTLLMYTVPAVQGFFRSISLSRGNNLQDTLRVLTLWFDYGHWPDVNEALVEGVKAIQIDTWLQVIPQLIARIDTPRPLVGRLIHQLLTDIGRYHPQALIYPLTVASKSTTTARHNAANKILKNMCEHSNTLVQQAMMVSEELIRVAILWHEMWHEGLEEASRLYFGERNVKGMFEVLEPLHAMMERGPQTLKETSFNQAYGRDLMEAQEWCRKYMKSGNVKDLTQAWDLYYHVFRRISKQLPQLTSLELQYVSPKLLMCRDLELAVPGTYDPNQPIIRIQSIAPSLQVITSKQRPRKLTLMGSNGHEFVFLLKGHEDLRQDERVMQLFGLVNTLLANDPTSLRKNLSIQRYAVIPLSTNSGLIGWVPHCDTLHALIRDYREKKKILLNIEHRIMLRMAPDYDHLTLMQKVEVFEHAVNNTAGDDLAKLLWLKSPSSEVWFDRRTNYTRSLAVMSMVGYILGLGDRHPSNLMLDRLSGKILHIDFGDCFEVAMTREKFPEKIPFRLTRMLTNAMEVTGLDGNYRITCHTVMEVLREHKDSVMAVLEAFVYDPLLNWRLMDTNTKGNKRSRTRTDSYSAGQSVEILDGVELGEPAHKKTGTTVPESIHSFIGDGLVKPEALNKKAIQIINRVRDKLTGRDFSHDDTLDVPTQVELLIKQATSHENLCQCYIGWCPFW

By IC50 is commonly meant the concentration at which inhibition is half-maximal. As for `CCS(=O)(=O)C1(c2cc(N3CCOC[C@@H]3C)nc(-c3ccc(NC(=O)N[C@H](C)CO)cc3)n2)CCC1` [Example 87f, 1-[4-[4-(1-ethylsulfonylcyclobutyl)-6-[(3S)-3-methylmorpholin-4-yl]pyrimidin-2-yl]phenyl]-3-[(2R)-1-hydroxypropan-2-yl]urea], the IC50 was 9.07 nM. In the case of `CCS(=O)(=O)C1(c2cc(N3CCOC[C@@H]3C)nc(-c3ccc(NC(=S)NCCCO)cc3)n2)CCC1` [Example 88, 1-[4-[4-(1-Ethylsulfonylcyclobutyl)-6-[(3S)-3-methylmorpholin-4-yl]pyrimidin-2-yl]phenyl]-3-(3-hydroxypropyl)thiourea], the IC50 came to 32.1 nM. For `CCS(=O)(=O)C1(c2cc(N3CCOC[C@@H]3C)nc(-c3ccc(NC(=S)NCCO)cc3)n2)CCC1` [Example 88a, 1-[4-[4-(1-ethylsulfonylcyclobutyl)-6-[(3S)-3-methylmorpholin-4-yl]pyrimidin-2-yl]phenyl]-3-(2-hydroxyethyl)thiourea], the IC50 amounted to 4.48 nM. With `CCS(=O)(=O)C1(c2cc(N3CCOC[C@@H]3C)nc(-c3ccc(NC(=S)NCc4ncc[nH]4)cc3)n2)CCC1` [Example 88b, 1-[4-[4-(1-ethylsulfonylcyclobutyl)-6-[(3S)-3-methylmorpholin-4-yl]pyrimidin-2-yl]phenyl]-3-(1H-imidazol-2-ylmethyl)thiourea] the figure was 56.7 nM. To `CCS(=O)(=O)C1(c2cc(N3CCOC[C@@H]3C)nc(-c3ccc(NC(=S)NCCCO)cc3)n2)CC1` [Example 88c, 1-[4-[4-(1-ethylsulfonylcyclopropyl)-6-[(3S)-3-methylmorpholin-4-yl]pyrimidin-2-yl]phenyl]-3-(3-hydroxypropyl)thiourea] belongs 47 nM. Take `CCS(=O)(=O)C1(c2cc(N3CCOC[C@@H]3C)nc(-c3ccc(NC(=S)NCCO)cc3)n2)CC1` [Example 88d, 1-[4-[4-(1-ethylsulfonylcyclopropyl)-6-[(3S)-3-methylmorpholin-4-yl]pyrimidin-2-yl]phenyl]-3-(2-hydroxyethyl)thiourea]: the 50% inhibitory concentration (IC50) worked out at 4 nM.

For the compound `CCNC(=O)Nc1ccc(-c2nc(N3CCOCC3C(N)=O)cc(C3(S(=O)(=O)c4ccccc4)CC3)n2)cc1` (stereo not drawn) [Example 89, 4-[6-[1-(Benzenesulfonyl)cyclopropyl]-2-[4-(ethylcarbamoylamino)phenyl]pyrimidin-4-yl]morpholine-3-carboxamide], the IC50 amounted to 485 nM. As for `CCNC(=O)Nc1ccc(-c2nc(N3CCOCC3C(=O)N(C)C)cc(C3(S(=O)(=O)c4ccccc4)CC3)n2)cc1` (stereo not drawn) [Example 90, 4-[6-[1-(Benzenesulfonyl)cyclopropyl]-2-[4-(ethylcarbamoylamino)phenyl]pyrimidin-4-yl]-N,N-dimethylmorpholine-3-carboxamide], the IC50 was 18.9 nM. In the case of `C[C@H]1COC[C@H](C)N1c1cc(C2(S(C)(=O)=O)CC2)nc(-c2ccc(NC(=O)NC3CC3)cc2)n1` [Example 91, 3-Cyclopropyl-1-[4-[4-[(3S,5S)-3,5-dimethylmorpholin-4-yl]-6-(1-methylsulfonylyclopropyl)pyrimidin-2-yl]phenyl]urea], the IC50 came out at 4.98 nM.

In the case of `CNC(=O)Nc1ccc(-c2nc(N3[C@@H](C)COC[C@@H]3C)cc(C3(S(C)(=O)=O)CC3)n2)cc1` [Example 91a, 1-[4-[4-[(3S,5S)-3,5-dimethylmorpholin-4-yl]-6-(1-methylsulfonylcyclopropyl)pyrimidin-2-yl]phenyl]-3-methylurea], the IC50 was determined as 1.98 nM. Regarding `CCNC(=O)Nc1ccc(-c2nc(N3[C@@H](C)COC[C@@H]3C)cc(C3(S(C)(=O)=O)CC3)n2)cc1` [Example 91b, 1-[4-[4-[(3S,5S)-3,5-dimethylmorpholin-4-yl]-6-(1-methylsulfonylcyclopropyl)pyrimidin-2-yl]phenyl]-3-ethylurea], the IC50 was determined as 5.21 nM. Regarding `C[C@H]1COC[C@H](C)N1c1cc(C2(S(C)(=O)=O)CC2)nc(-c2ccc(NC(=O)NCCF)cc2)n1` [Example 91c, 1-[4-[4-[(3S,5S)-3,5-dimethylmorpholin-4-yl]-6-(1-methylsulfonylcyclopropyl)pyrimidin-2-yl]phenyl]-3-(2-fluoroethyl)urea], the concentration for half-maximal inhibition (IC50) turned out to be 3.68 nM.

Take `C[C@H]1COC[C@H](C)N1c1cc(C2(S(C)(=O)=O)CC2)nc(-c2ccc(NC(=O)NCCO)cc2)n1` [Example 91d, 1-[4-[4-[(3S,5S)-3,5-dimethylmorpholin-4-yl]-6-(1-methylsulfonylcyclopropyl)pyrimidin-2-yl]phenyl]-3-(2-hydroxyethyl)urea]: the IC50 worked out at 3.56 nM. On to `C[C@H]1COC[C@H](C)N1c1cc(C2(S(=O)(=O)C3CC3)CC2)nc(-c2ccc(NC(=O)NC3CC3)cc2)n1` [Example 92, 3-Cyclopropyl-1-[4-[4-(1-cyclopropylsulfonylcyclopropyl)-6-[(3S,5S)-3,5-dimethylmorpholin-4-yl]pyrimidin-2-yl]phenyl]urea], for which the IC50 amounted to 7.93 nM. Consider `C[C@H]1COC[C@H](C)N1c1cc(C2(S(=O)(=O)C3CC3)CC2)nc(-c2ccc(NC(=O)NCC(F)F)cc2)n1` [Example 92a, 1-[4-[4-(1-cyclopropylsulfonylcyclopropyl)-6-[(3S,5S)-3,5-dimethylmorpholin-4-yl]pyrimidin-2-yl]phenyl]-3-(2,2-difluoroethyl)urea], for which the IC50 turned out to be 5.51 nM. To `C[C@H]1COC[C@H](C)N1c1cc(C2(S(=O)(=O)C3CC3)CC2)nc(-c2ccc(NC(=O)Nc3cnn(C)c3)cc2)n1` [Example 92b, 1-[4-[4-(1-cyclopropylsulfonylcyclopropyl)-6-[(3S,5S)-3,5-dimethylmorpholin-4-yl]pyrimidin-2-yl]phenyl]-3-(1-methylpyrazol-4-yl)urea] belongs 7.46 nM; to `CNC(=O)Nc1ccc(-c2nc(N3[C@@H](C)COC[C@@H]3C)cc(C3(S(=O)(=O)C4CC4)CC3)n2)cc1` [Example 92c, 1-[4-[4-(1-cyclopropylsulfonylcyclopropyl)-6-[(3S,5)-3,5-dimethylmorpholin-4-yl]pyrimidin-2-yl]phenyl]-3-methylurea], 7.8 nM. Turning to `CCNC(=O)Nc1ccc(-c2nc(N3[C@@H](C)COC[C@@H]3C)cc(C3(S(=O)(=O)C4CC4)CC3)n2)cc1` [Example 92d, 1-[4-[4-(1-cyclopropylsulfonylcyclopropyl)-6-[(3S,5S)-3,5-dimethylmorpholin-4-yl]pyrimidin-2-yl]phenyl]-3-ethylurea], the IC50 amounted to 8.07 nM.

For `C[C@H]1COC[C@H](C)N1c1cc(C2(S(=O)(=O)C3CC3)CC2)nc(-c2ccc(NC(=O)NCCF)cc2)n1` [Example 92e, 1-[4-[4-(1-cyclopropylsulfonylcyclopropyl)-6-[(3S,5S)-3,5-dimethylmorpholin-4-yl]pyrimidin-2-yl]phenyl]-3-(2-fluoroethyl)urea], the IC50 was 5.99 nM.

For `C[C@H]1COC[C@H](C)N1c1cc(C2(S(=O)(=O)C3CC3)CC2)nc(-c2ccc(NC(=O)NCCO)cc2)n1` [Example 92f, 1-[4-[4-(1-cyclopropylsulfonylcyclopropyl)-6-[(3S,5S)-3,5-dimethylmorpholin-4-yl]pyrimidin-2-yl]phenyl]-3-(2-hydroxyethyl)urea], the IC50 worked out at 6.25 nM. As for `C[C@H]1COC[C@H](C)N1c1cc(C2(S(=O)(=O)c3ccccc3)CC2)nc(-c2ccc(NC(=O)NC3CC3)cc2)n1` [Example 93, 1-[4-[4-[1-(Benzenesulfonyl)cyclopropyl]-6-[(3S,5S)-3,5-dimethylmorpholin-4-yl]pyrimidin-2-yl]phenyl]-3-cyclopropylurea], the IC50 came out at 5.05 nM.

For the origin of these results see patent US20090018134A1, “Compounds - 945” (AstraZeneca AB, priority 2007, published 2009).
